In data set [1] the test system is Crabgrass(large) (Digitaria sanguinalis). The data set can be described thus: Preemergence herbicidal activity, soil spray. Format: in vivo. To be noted: Digitaria sanguinalis, pre-emergence, 504 h, Table 5, visual score after 3 weeks, read-out: Pre-emergent % control DIGSA; for pest or weed control at 560 ppm: rate 560 ppm. From the text:
(§1) Seeds of the desired test plant species were planted in a soil matrix prepared by mixing a loam soil (43 percent silt, 19 percent clay, and 38 percent sand, with a pH of about 8.1 and an organic matter content of about 1.5 percent) and sand in a 70 to 30 ratio. The soil matrix was contained in plastic pots with a surface area of 113 square centimeters. When required to ensure good germination and healthy plants, a fungicide treatment and/or other chemical or physical treatment was applied. A weighed amount, determined by the highest rate to be tested, of each test compound was placed in a 20 mL glass vial and was dissolved in 4 mL of a 97:3 v/v (volume/volume) mixture of acetone and dimethyl sulfoxide to obtain concentrated stock solutions. […] The stock solutions obtained were diluted with a 99.9:0.1 mixture of water and Tween® 155 surfactant to obtain application solutions of known concentration. The solutions containing the highest concentration to be tested were prepared by diluting 2 mL aliquots of the stock solution with 15 mL of the mixture and lower concentrations were prepared by serial dilution of the stock solution. A 2.5 mL aliquot of each solution of known concentration was sprayed evenly onto the soil surface (113 sq. cm) of each seeded pot using a Cornwall 5.0 mL glass syringe fitted with a TeeJet TN-3 hollow cone nozzle to obtain thorough coverage of the soil in each pot. Control pots were sprayed in the same manner with the aqueous mixture. The treated pots and control pots were placed in a greenhouse maintained with an approximate 15 hr photoperiod and temperatures of about 23-29° C. during the day and 22-28° C. during the night. Nutrients and water were added on a regular basis and supplemental lighting was provided with overhead metal halide 1000-Watt lamps as necessary. The water was added by top-irrigation.

In data set [2] the test system is Pigweed (redroot) (Amaranthus retroflexus). The data set can be described thus: Preemergence herbicidal activity, soil spray. To be noted: Amaranthus retroflexus, pre-emergence, 504 h, Table 5, visual score after 3 weeks, read-out: Pre-emergent % control AMARE; for pest or weed control at 560 ppm: rate 560 ppm. Type of data set: in vivo.
Text: as §1

For data set [3], the system named is Giant Foxtail (Setaria faberi). The data set can be described thus: Preemergence herbicidal activity, soil spray. Type of data set: in vivo. To be noted: Setaria faberi, pre-emergence, 504 h, Table 5, visual score after 3 weeks, read-out: Pre-emergent % control SETFA; for pest or weed control at 560 ppm: rate 560 ppm.
Text: as §1

Data set [4] concerns Lambsquarter (Chenopodium album). The data set can be described thus: Preemergence herbicidal activity, soil spray. To be noted: Chenopodium album, pre-emergence, 504 h, Table 5, visual score after 3 weeks, read-out: Pre-emergent % control CHEAL; for pest or weed control at 560 ppm: rate 560 ppm, 100 complete kill or no germination. Format: in vivo.
Text: as §1

In data set [5] the test system is Barnyardgrass (Echinochloa crus-galli). The data set can be described thus: Postemergence herbicidal activity, greenhouse spray. To be noted: Echinochloa crus-galli, post-emergence, 336 h, visual score after 2 weeks, read-out: Post-emergent % control ECHCG; for pest or weed control at 250 ppm / pest or weed control at 500 ppm: Table 1; for pest or weed control at 250 ppm: rate 250 ppm; for pest or weed control at 500 ppm: rate 500 ppm; for pest or weed control at 125 ppm: Table 2, rate 125 ppm. Format: in vivo. In outline:
(§2)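 Foliar spray at 1st-2nd true leaf; carrier: acetone/water/IPA/DMSO/crop oil concentrate/Triton X-155 (48.5:39:10:1.5:1.0:0.02). Serial dilutions from acetone:DMSO stock. Greenhouse ~15 h light, 23-29° C day. Sub-irrigated post-treatment. Carrier-sprayed controls.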

The subject of data set [6] is Cocklebur (Xanthium strumarium). Described as above. To be noted: Xanthium strumarium, post-emergence, 336 h, visual score after 2 weeks, read-out: Post-emergent % control XANST; for pest or weed control at 250 ppm / pest or weed control at 500 ppm: Table 1; for pest or weed control at 250 ppm: rate 250 ppm; for pest or weed control at 500 ppm: rate 500 ppm, 0 no injury, 100 complete kill; for pest or weed control at 125 ppm: Table 2, rate 125 ppm. Type of data set: in vivo. In outline: as §2

For data set [7], the system named is Yellow nutsedge (Cyperus esculentus). The description is as above. Format: in vivo. To be noted: Cyperus, post-emergence, 336 h, visual score after 2 weeks, read-out: Post-emergent % control CYPES; for pest or weed control at 250 ppm / pest or weed control at 500 ppm: Table 1; for pest or weed control at 250 ppm: rate 250 ppm; for pest or weed control at 500 ppm: rate 500 ppm; for pest or weed control at 125 ppm: Table 2, rate 125 ppm. In outline:
as §2

In data set [8] the test system is Lambsquarter (Chenopodium album). The description is as above. Format: in vivo. To be noted: Chenopodium album, post-emergence, 336 h, visual score after 2 weeks, read-out: Post-emergent % control CHEAL; for pest or weed control at 250 ppm / pest or weed control at 500 ppm: Table 1; for pest or weed control at 250 ppm: rate 250 ppm; for pest or weed control at 500 ppm: rate 500 ppm; for pest or weed control at 125 ppm: Table 2, rate 125 ppm. In outline: as §2

What is called melting point is the temperature, or range, at which the solid turns liquid.

Molecule `COC(=O)c1nc(-c2ccc(Cl)cc2Cl)cc(N)c1Cl` [Compound 13, Methyl 4-amino-3-chloro-6-(2,4-dichlorophenyl)pyridine-2-carboxylate] returned a melting point of 130 to 131 °C. For the same molecule, the pest or weed control at 560 ppm in data set [1] came out at 90%. The pest or weed control at 560 ppm in [2] was 100%. Besides, the pest or weed control at 560 ppm in data set [3] amounted to 100%. Moreover, the pest or weed control at 560 ppm in data set [4] was 100%. Also, the pest or weed control at 250 ppm in data set [5] came to 70%. The pest or weed control at 250 ppm in data set [6] worked out at 100%. The pest or weed control at 250 ppm in [7] is 80%. For the same molecule, the pest or weed control at 250 ppm in data set [8] stood at 100%.

Molecule `COC(=O)c1nc(-c2ccc(OC)cc2)cc(N)c1Cl` [Compound 17, Methyl 4-amino-3-chloro-6-(4-methoxyphenyl)pyridine-2-carboxylate] gave a melting point of 148 to 149 °C. Moreover, in data set [1], the pest or weed control at 560 ppm was 100%. For the same molecule, the pest or weed control at 560 ppm in data set [2] is 100%. In addition, the pest or weed control at 560 ppm in data set [3] is 100%. Moreover, the pest or weed control at 560 ppm in data set [4] is 100%. Further, the pest or weed control at 250 ppm in data set [5] was determined as 70%. For the same molecule, the pest or weed control at 250 ppm in data set [6] was 100%. The pest or weed control at 250 ppm in data set [7] amounted to 70%. Besides, the pest or weed control at 250 ppm in data set [8] was determined as 100%.

Turning to `COC(=O)c1nc(-c2ccc(Cl)cc2)cc(N)c1Cl` [Compound 19, Methyl 4-amino-3-chloro-6-(4-chlorophenyl)pyridine-2-carboxylate], the melting point worked out at 132 °C. Further, the pest or weed control at 560 ppm in [1] was found to be 100%. Moreover, the pest or weed control at 560 ppm in data set [2] is 100%. Also, the pest or weed control at 560 ppm in [3] amounted to 100%. Further, the pest or weed control at 560 ppm in data set [4] came to 100%. The pest or weed control at 250 ppm in data set [5] is 80%. Also, the pest or weed control at 250 ppm in [6] is 100%. In addition, the pest or weed control at 250 ppm in data set [7] is 90%. For the same molecule, the pest or weed control at 250 ppm in data set [8] came to 95%.

On to `COC(=O)c1nc(-c2cccc(Cl)c2)cc(N)c1Cl` [Compound 27, Methyl 4-amino-3-chloro-6-(3-chlorophenyl)pyridine-2-carboxylate], for which the melting point worked out at 141 °C. The pest or weed control at 560 ppm in data set [1] was 100%. Also, the pest or weed control at 560 ppm in data set [2] came to 100%. Besides, the pest or weed control at 560 ppm in [3] is 100%. The pest or weed control at 560 ppm in data set [4] was 100%. For the same molecule, the pest or weed control at 250 ppm in data set [5] was 70%. The pest or weed control at 250 ppm in [6] is 95%. In addition, in data set [7], the pest or weed control at 250 ppm came out at 60%. Besides, the pest or weed control at 250 ppm in data set [8] worked out at 95%.

Consider `COC(=O)c1nc(-c2ccc(C(F)(F)F)cc2)cc(N)c1Cl` [Compound 28, Methyl 4-amino-3-chloro-6-[4-(trifluoromethyl)phenyl]pyridine-2-carboxylate], for which the melting point stood at 149 °C. Also, in [1], the pest or weed control at 560 ppm is 100%. In addition, the pest or weed control at 560 ppm in data set [2] was found to be 100%. For the same molecule, the pest or weed control at 560 ppm in data set [3] amounted to 100%. The pest or weed control at 560 ppm in data set [4] was found to be 100%. Moreover, the pest or weed control at 250 ppm in data set [5] turned out to be 75%. Moreover, the pest or weed control at 250 ppm in data set [6] turned out to be 100%. In data set [7], the pest or weed control at 250 ppm amounted to 80%. For the same molecule, the pest or weed control at 250 ppm in data set [8] was 100%.

`COC(=O)c1nc(-c2ccc(F)c(Cl)c2)cc(N)c1Cl` [Compound 39, Methyl 4-amino-3-chloro-6-(3-chloro-4-fluorophenyl)pyridine-2-carboxylate] yielded a melting point of 169 to 170 °C. Further, in data set [1] (rate 140 ppm), the pest or weed control at 140 ppm is 95%. In addition, in data set [2] (rate 140 ppm), the pest or weed control at 140 ppm is 100%. Besides, the pest or weed control at 140 ppm in data set [3] (rate 140 ppm) stood at 75%. Moreover, the pest or weed control at 140 ppm in data set [4] (rate 140 ppm) was 95%. Also, the pest or weed control at 500 ppm in data set [5] was determined as 95%. Also, the pest or weed control at 500 ppm in data set [6] was 100%. Besides, in data set [7], the pest or weed control at 500 ppm amounted to 99%. For the same molecule, the pest or weed control at 500 ppm in data set [8] amounted to 100%.

With `COC(=O)c1nc(-c2ccc3c(c2)OCO3)c(F)c(N)c1Cl` [Compound 84, Methyl 4-amino-3-chloro-5-fluoro-6-(3,4-methylenedioxyphenyl)pyridine-2-carboxylate], the melting point was 160 °C. In addition, the pest or weed control at 560 ppm in [1] was determined as 100%. Besides, the pest or weed control at 560 ppm in data set [2] was 100%. Besides, the pest or weed control at 560 ppm in [3] was 100%. For the same molecule, the pest or weed control at 560 ppm in data set [4] stood at 100%. In data set [5], the pest or weed control at 250 ppm came to 98% and the pest or weed control at 125 ppm was found to be 98%. Besides, in data set [6], the pest or weed control at 250 ppm was determined as 100% and the pest or weed control at 125 ppm is 100%. Moreover, in data set [7], the pest or weed control at 250 ppm worked out at 100% and the pest or weed control at 125 ppm was 90%. In addition, in [8], the pest or weed control at 250 ppm was 100% and the pest or weed control at 125 ppm turned out to be 100%.

For `COC(=O)c1nc(-c2ccc(Cl)cc2)c(Cl)c(N)c1Cl` [Compound 86, Methyl 4-amino-3,5-dichloro-6-(4-chlorophenyl)pyridine-2-carboxylate], the melting point was in the range of 160 to 162 °C. Besides, the pest or weed control at 560 ppm in data set [1] was 40%. Further, the pest or weed control at 560 ppm in data set [2] stood at 100%. The pest or weed control at 560 ppm in [3] was found to be 40%. Moreover, the pest or weed control at 560 ppm in data set [4] is 100%. In addition, in data set [5], the pest or weed control at 500 ppm is 90% and the pest or weed control at 125 ppm was determined as 80%. Also, in [6], the pest or weed control at 500 ppm worked out at 100% and the pest or weed control at 125 ppm is 100%. In data set [7], the pest or weed control at 500 ppm was found to be 90% and the pest or weed control at 125 ppm was determined as 100%. Also, in [8], the pest or weed control at 500 ppm turned out to be 100% and the pest or weed control at 125 ppm came to 100%.

The molecule `COC(=O)c1nc(-c2ccc(Cl)cc2Cl)c(F)c(N)c1Cl` [Compound 88, Methyl 4-amino-3-chloro-5-fluoro-6-(2,4-dichlorophenyl)pyridine-2-carboxylate] came in with a melting point of 122 °C. Moreover, the pest or weed control at 560 ppm in [1] is 70%. For the same molecule, in data set [2], the pest or weed control at 560 ppm is 100%. Further, the pest or weed control at 560 ppm in data set [3] is 70%. Moreover, in data set [4], the pest or weed control at 560 ppm is 100%. Moreover, in [5], the pest or weed control at 250 ppm was 85% and the pest or weed control at 125 ppm is 85%. In addition, in data set [6], the pest or weed control at 250 ppm is 100% and the pest or weed control at 125 ppm worked out at 100%. For the same molecule, in [7], the pest or weed control at 250 ppm worked out at 95% and the pest or weed control at 125 ppm is 95%. Further, in data set [8], the pest or weed control at 250 ppm came out at 100% and the pest or weed control at 125 ppm was 100%.
